Measured values as given in patent US6353111B1, “Trans olefinic glucokinase activators” (Hoffmann-La Roche Inc., priority 1999, dated 2002).

Assays:
C57BL/6J mice = test: Glucokinase activator in vivo screen protocol (blood glucose after oral dosing); conditions: oral gavage 50 mg/kg after two hour fast, blood glucose at 1, 2, 4 and 6 hours post dose, active = p≦0.05 decrease for two consecutive time points
Method: Glucokinase Activator in vivo Screen Protocol
C57BL/6J. mice are orally dosed via gavage with Glucokinase (GK) activator at 50 mg/kg body weight following a two hour fasting period. Blood glucose determinations are made five times during the six hour post-dose study period.
Mice (n=6) are weighed and fasted for a two hour period prior to oral treatment. GK activators are formulated at 6.76 mg/ml in Gelucire vehicle (Ethanol:Gelucire44/14:PEG400q.s. 4:66:30 v/w/v. Mice are dosed orally with 7.5 μl formulation per gram of body weight to equal a 50 mg/kg dose. Immediately prior to dosing, a pre dose (time zero) blood glucose reading is acquired by snipping off a small portion of the animals tail (˜1 mm) and collecting 15 μl blood into a heparinized capillary tube for analysis. Following GK activator administration, additional blood glucose readings are taken at 1, 2, 4 and 6 hours post dose from the same tail wound. Results are interpreted by comparing the mean blood glucose values of six vehicle treated mice with six GK activator treated mice over the six hour study duration.

Row | Compound | melting point [°C] | glucokinase activator in vivo activity (decrease in blood glucose compared to vehicle) (C57BL/6J mice)
1 | CS(=O)(=O)c1ccc(/C(=C\C2CCCC2)C(=O)Nc2nccs2)cc1 [Example 3, (E)-3-Cyclopentyl-2-(4-methanesulfonyl-phenyl)-N-thiazol-2-yl-acrylamide] | 172 to 173 | excellent glucokinase activator in vivo activity
2 | CS(=O)(=O)c1ccc(/C(=C\C2CCCCC2)C(=O)Nc2nccs2)cc1 [Example 4, (E)-3-Cyclohexyl-2-(4-methanesulfonyl-phenyl)-N-thiazol-2-yl-acrylamide] | – | excellent glucokinase activator in vivo activity
3 | CS(=O)(=O)c1ccc(/C(=C\C2CCCCCC2)C(=O)Nc2nccs2)cc1 [Example 5, (E)-3-Cycloheptyl-2-(4-methanesulfonyl-phenyl)-N-thiazol-2-yl-acrylamide] | 163 to 165 | excellent glucokinase activator in vivo activity
4 | CS(=O)(=O)c1ccc(/C(=C\C2CCCC2)C(=O)Nc2nccs2)cc1Cl [Example 9, (E)-2-(3-Chloro-4-methanesulfonyl-phenyl)-3-cyclopentyl-N-thiazol-2-yl-acrylamide] | – | excellent glucokinase activator in vivo activity
5 | CS(=O)(=O)c1ccc(/C(=C\C2CCCCC2)C(=O)Nc2nccs2)cc1C(F)(F)F [Example 12, (E)-3-Cyclohexyl-2-(4-methanesulfonyl-3-trifluoromethyl-phenyl)-N-thiazol-2-yl-acrylamide] | – | excellent glucokinase activator in vivo activity
6 | CS(=O)(=O)c1ccc(/C(=C\C2CCCCC2)C(=O)Nc2nccs2)cc1[N+](=O)[O-] [Example 14, (E)-3-Cyclohexyl-2-(4-methanesulfonyl-3-nitro-phenyl)-N-thiazol-2-yl-acrylamide] | – | excellent glucokinase activator in vivo activity
7 | CS(=O)(=O)c1ccc(/C(=C\C2CCCC2)C(=O)Nc2ccccn2)cc1Cl [Example 19, (E)-2-(3-Chloro-4-methanesulfonyl-phenyl)-3-cyclopentyl-N-pyridin-2-yl-acrylamide] | – | excellent glucokinase activator in vivo activity
8 | CS(=O)(=O)c1ccc(/C(=C\C2CCCCC2)C(=O)Nc2ccc(Br)cn2)cc1C(F)(F)F [Example 20, (E)-N-(5-Bromo-pyridin-2-yl)-3-cyclohexyl-2-(4-methanesulfonyl-3-trifluoromethyl-phenyl)-acrylamide] | – | excellent glucokinase activator in vivo activity
9 | COC(=O)c1csc(NC(=O)/C(=C/CC2CCCC2)c2ccc(S(C)(=O)=O)cc2)n1 [Example 22, (E)-2-[4-Cyclopentyl-2-(4-methanesulfonyl-phenyl)-but-2-enoylamino]-thiazole-4-carboxylic acid methyl ester] | 85 to 90 | excellent glucokinase activator in vivo activity
10 | CS(=O)(=O)c1ccc(/C(=C\CC2CCCC2)C(=O)Nc2nccs2)cc1C(F)(F)F [Example 25, (E)-4-Cyclopentyl-2-(4-methanesulfonyl-3-trifluoromethyl-phenyl)-but-2-enoic acid thiazol-2-ylamide] | – | excellent glucokinase activator in vivo activity
11 | CNC(=O)NC(=O)/C(=C/C1CCCCC1)c1ccc(S(C)(=O)=O)c(C(F)(F)F)c1 [Example 27, (E)-1-[3-Cyclohexyl-2-(4-methanesulfonyl-3-trifluoromethyl-phenyl)-acryloyl]-3-methyl-urea] | 199 to 202 | –

Second part, led by results:

Row | melting point [°C] | Compound | glucokinase activator in vivo activity (decrease in blood glucose compared to vehicle) (C57BL/6J mice)
12 | 155 to 158 | CC/C=C(/C(=O)Nc1nccs1)c1ccc(S(C)(=O)=O)cc1 [Example 1, (E)-2-(4-Methanesulfonyl-phenyl)-pent-2-enoic acid thiazol-2-ylamide] | –
13 | 202 to 205 | CS(=O)(=O)c1ccc(/C(=C\C2CCCC2)C(=O)Nc2ncc(Br)s2)cc1 [Example 7, (E)-N-(5-Bromo-thiazol-2-yl)-3-cyclopentyl-2-(4-methanesulfonyl-phenyl)-acrylamide] | –
14 | 57 to 59 | O=C(Nc1nccs1)/C(=C/C1CCCC1)c1ccc(Cl)c(Cl)c1 [Example 8, (E)-3-Cyclopentyl-2-(3,4-dichloro-phenyl)-N-thiazol-2-yl-acrylamide] | –
15 | 159 to 163 | CS(=O)(=O)c1ccc(/C(=C\C2CCCCCC2)C(=O)Nc2ncc(Br)s2)cc1 [Example 16, (E)-N-(5-Bromo-thiazol-2-yl)-3-cycloheptyl-2-(4-methanesulfonyl-phenyl)-acrylamide] | excellent glucokinase activator in vivo activity
16 | 173 to 176 | CS(=O)(=O)c1ccc(/C(=C\CC2CCCC2)C(=O)Nc2nccs2)cc1 [Example 21, (E)-4-Cyclopentyl-2-(4-methanesulfonyl-phenyl)-but-2-enoic acid thiazol-2-ylamide] | excellent glucokinase activator in vivo activity
17 | 177 to 178 | CNC(=O)NC(=O)/C(=C/C(C)C)c1ccc(Cl)c(Cl)c1 [Example 26, (E)-1-[2-(3,4-Dichloro-phenyl)-4-methyl-pent-2-enoyl]-3-methyl-urea] | –
